Assay results published in patent EP4722228A1, “NEW COMPOUND TARGETING MUSK AND USE THEREOF” (The University of Tokyo, priority 2023, dated 2024).
Bridge positions count the residues as written; N and C are the ends. Square brackets hold non-standard residues; d marks the D form. Peptide text beside a SMILES is read from it. I, II: the chains in the order shown. * marks the point of attachment. Palmitoyl = CCCCCCCCCCCCCCCC(=O)*; PEG3 = NCCOCCOCCOCCC(=O)O; Dap = NC[C@H](N)C(=O)O

Biological target: T1, mouse MuSK (Mus musculus, UniProt Q61006)
T1 construct: made in house
T1 sequence (Q61006 22-494 limits assumed): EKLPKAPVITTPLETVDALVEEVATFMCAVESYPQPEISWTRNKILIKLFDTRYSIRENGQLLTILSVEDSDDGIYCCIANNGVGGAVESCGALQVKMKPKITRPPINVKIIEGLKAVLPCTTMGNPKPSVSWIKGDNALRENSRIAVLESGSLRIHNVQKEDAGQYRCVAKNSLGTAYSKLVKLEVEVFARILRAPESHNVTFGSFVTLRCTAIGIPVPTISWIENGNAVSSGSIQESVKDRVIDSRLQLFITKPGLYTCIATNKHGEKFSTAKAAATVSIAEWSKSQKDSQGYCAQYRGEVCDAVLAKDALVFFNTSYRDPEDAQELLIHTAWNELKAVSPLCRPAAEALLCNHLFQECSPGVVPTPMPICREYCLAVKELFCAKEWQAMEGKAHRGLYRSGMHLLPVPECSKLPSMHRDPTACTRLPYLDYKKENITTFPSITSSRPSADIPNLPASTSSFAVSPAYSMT
Assay: SPR binding activity test to mouse MuSK (Biacore)
Settings: Table 5
Experimental: The strength of binding between MuSK and the cyclic peptides was evaluated by quantitatively measuring the binding kinetics (binding affinity (dissociation constant) KD) of the cyclic peptides to MuSK immobilized on a sensor chip via an Fc tag, using surface plasmon resonance (SPR).
According to the standard immobilization protocol provided by the manufacturer, Fc-tagged human/mouse/rat MuSK was immobilized on a Protein G chip or a Protein A chip (Cytiva). A running buffer for the monomer/dimer peptides contained 0.010 M phosphate, 0.14 M NaCl, 0.0027 M KCl, 0.05% (v/v) Tween 20, and 0.1% (v/v) DMSO. A running buffer for the monomer/dimer U-bodies contained 0.010 M phosphate, 0.14 M NaCl, 0.0027 M KCl, and 0.05% (v/v) Tween 20. A series of concentrations of each monomer peptide, dimer peptide, monomer U-body, and dimer U-body was injected as analytes. A 1:1 binding fitting analysis was applied using Biacore evaluation software, and ka, kd, and KD values were determined.
Fc-tagged human MuSK was prepared according to the procedure described in Example 1(1). In addition, Fc-tagged mouse MuSK was used by expressing a nucleotide sequence encoding the Fc-tagged mouse MuSK extracellular domain (SEQ ID NO: 34). […]
The affinity of the U-bodies and their complexes obtained as described above for MuSK of human, rat, and mouse was evaluated (binding activity test). […]

Kd: 8.8 nM
SMILES: CCCCCCCCCCCCCCCC(=O)NCCCC[C@H](NC(=O)[C@H](CNC(=O)CCOCCOCCOCCNC(=O)CNC(=O)[C@@H]1CSCC(=O)N[C@H](Cc2ccc(O)cc2)C(=O)N2CCC[C@H]2C(=O)N[C@@H](CO)C(=O)N[C@@H](Cc2ccc(O)cc2)C(=O)N[C@@H](Cc2c[nH]cn2)C(=O)N[C@@H]([C@@H](C)O)C(=O)N[C@@H](CC(N)=O)C(=O)N[C@@H](C(C)C)C(=O)N[C@@H](C(C)C)C(=O)N[C@@H](C)C(=O)N[C@@H](CO)C(=O)N[C@@H](CC(C)C)C(=O)N[C@@H](CCCCN)C(=O)N[C@@H](CCCNC(=N)N)C(=O)N1)NC(=O)CCOCCOCCOCCNC(=O)CNC(=O)[C@@H]1CSCC(=O)N[C@H](Cc2ccc(O)cc2)C(=O)N2CCC[C@H]2C(=O)N[C@@H](CO)C(=O)N[C@@H](Cc2ccc(O)cc2)C(=O)N[C@@H](Cc2c[nH]cn2)C(=O)N[C@@H]([C@@H](C)O)C(=O)N[C@@H](CC(N)=O)C(=O)N[C@@H](C(C)C)C(=O)N[C@@H](C(C)C)C(=O)N[C@@H](C)C(=O)N[C@@H](CO)C(=O)N[C@@H](CC(C)C)C(=O)N[C@@H](CCCCN)C(=O)N[C@@H](CCCNC(=N)N)C(=O)N1)C(N)=O [MuSK7-pal] (I: {CH2CO}-[dY]PSYHTNVVASLKRCG[PEG3][Dap]K(Palmitoyl)-NH2 / II: {CH2CO}-[dY]PSYHTNVVASLKRCG[PEG3]; amide I:18-II:C; thioether I:N-I:15, II:N-II:15)
